Where “and” joins values, the source holds several entries; their conditions need not be identical. Equal entries are not always repeated.
Columns and labels:
[1] = cited from earlier work
1,5-AG = test: Level of 1,5-AG in subjects having GSD Ib after Jardiance treatment; assay type: in vivo, human; settings: reference range in normal adults 10.7-32.0, in µg/mL (unit assumed)
Description: The level of 1,5-AG was determined in 6 subjects having GSD Ib. Here, the reference range of 1,5-AG in normal, non-GSD Ib adults is 10.7-32.0.

| Compound | half-life in blood ([1]; blood) | excreted amount in urine reabsorbed by the kidneys ([1]; reabsorption at sodium glucose active cotransporter (SGLT4)) | Level of 1,5-AG After Jardiance Treatment (1,5-AG; first value after treatment) | Level of 1,5-AG After Jardiance Treatment (1,5-AG; later value ('then')) |
| --- | --- | --- | --- | --- |
| OC[C@H]1OC[C@H](O)[C@@H](O)[C@@H]1O [1,5-AG, 1,5-anhydroglucitol] | 1-2 weeks | About 99.9% | – | – |
| OC[C@H]1O[C@@H](c2ccc(Cl)c(Cc3ccc(O[C@H]4CCOC4)cc3)c2)[C@H](O)[C@@H](O)[C@@H]1O [Jardiance] | – | – | 20.7 and 33.1 | 7.8 |

— patent US20230366887A1, “METHODS OF DETECTING AND USING BIOMARKERS FOR GLYCOGEN STORAGE DISEASES” (Duke University, priority 2020, published 2023)
